Legend:
mice [1] = test: Intraocular pressure (IOP) in mice by rebound tonometry (Tonolab); assay type: in vivo
Description: IOP was measured in mice by rebound tonometry, using a Tonolab (Icare Finland Oy, Helsinki, Finland). This instrument uses a light plastic-tipped probe to briefly make contact with the cornea; after the probe encounters the eye the instrument measures the speed at which the probe rebounds in order to calculate IOP.
(§1) To obtain reproducible IOP measurements, mice were anesthetized with isoflurane (3% induction). The anesthetized mouse was then placed on a platform in a prone position, where anesthesia was maintained with 2% isoflurane. Baseline fop measurements are taken in both eyes. A ‘measurement’ included the average value of six readings. One eye was then treated with drug (dissolved in Tocrisolve (Tocris Biosciences), a soya-based solvent, 5 μL final volume, applied topically) while the other eye was treated with vehicle. The animal was then allowed to recover. After an hour the animal was again anesthetized as above. IOP was then measured in the drug-treated and vehicle-treated contralateral eye.
IOP measurements following drug administration were analyzed by paired t-tests comparing drug-treated eyes to contralateral vehicle-treated eyes. Where animals were injected with drug, ocular pressures of animals were compared with those of vehicle-injected animals and compared using an unpaired t-test.

[2] = Observation of signs of irritation after 7 days of daily topical treatment; assay type: in vivo, mice; conditions: after the 7 days of daily treatment, SR141716 1 mM topical
Description: as §1
The outcome of repeated daily treatment with SR1 was tested separately. […] The IOP was also lower in the vehicle treated eye but this difference was not statistically significant.

mice [3] = test: Intraocular pressure (IOP) in mice by rebound tonometry (Tonolab); assay type: in vivo; remark: listed apart in the source

In the case of `O=C(Nc1ccc(Cl)cc1)Nc1cccc(-c2cccc(N3CCCC3)n2)c1` [PSNCBAM1, 1-(4-chlorophenyl)-3-(3-(6-(pyrrolidin-1-yl)pyridin-2-yl)phenyl)urea], the “IOP (mm Hg±SEM) 1 hour after intraperitoneal injection” value (mice [1]; PSNCBAM1 4 mg/kg IP, 1 hour, n=16, baseline IOP 19.6±0.4, p<0.005, FIG. 3B) is reported as 17.3±0.5 mm Hg, the “IOP (mm Hg±SEM) in drug-treated eye after topical treatment” value (mice [1]; PSNCBAM1 5 mM topical, WT mice, n=8, not significant vs vehicle-treated eye 17.4±0.7, FIG. 3A) is reported as 18.0±0.6 mm Hg and the “Effect of intraperitoneal injection on ocular pressure” value (mice [1]; intraperitoneal injection, FIG. 3B) is reported as “lowered ocular pressure”. For the same compound, the “Effect of topical treatment on ocular pressure relative to the contralateral eye” value (mice [1]; topical, WT mice, FIG. 3A) was “did not lower ocular pressure”.
For `Cc1c(C(=O)NN2CCCCC2)nn(-c2ccc(Cl)cc2Cl)c1-c1ccc(Cl)cc1` [SR141716, 5-(4-Chlorophenyl)-1-(2,4-dichloro-phenyl)-4-methyl-N-(piperidin-1-yl)-1H-pyrazole-3-carboxamide], the Signs of irritation [2] was “No signs of irritation were observed”, the “Δ IOP±SEM, drug-treated eye before 7th treatment (24 hours after 6th daily treatment)” value (mice [3]; SR141716 1 mM topical daily, 7 days, drug-treated eye, n=8, p<0.05, FIG. 4B) was −2.9±1.0 mm Hg and the “Δ IOP±SEM, effect at 24 hrs after a single treatment” value (mice [3]; SR141716 1 mM topical, single treatment, 24 hrs, n=16, FIG. 4A) was −0.3±0.3 mm Hg. The “Δ IOP±SEM, effect at 48 hrs after a single treatment” value (mice [3]; SR141716 1 mM topical, single treatment, 48 hrs, n=16, p<0.005, FIG. 4A) was “+2.0±0.6 mm Hg”, the “Δ IOP±SEM, effect in drug-treated eye after seven days of daily treatment” value (mice [1]; SR141716 1 mM topical, 7th day of daily treatment, n=8, p<0.005, FIG. 4C) was −4.6±0.9 mm Hg and the “Δ IOP±SEM, effect at 1 day in drug-treated eye” value (mice [1]; SR141716 1 mM topical, day 1 of daily treatment, n=8, FIG. 4C) was −2.8±0.6 mm Hg. The “Effect on intraocular pressure at midday, standard light cycle” value (mice [1]; SR141716 1 mM, midday, mice in standard light cycle, FIG. 1B) was “raised intraocular pressure”, the “Effect on intraocular pressure at midnight, reverse light cycle” value (mice [1]; SR141716 1 mM, midnight, mice in reverse light cycle) was “reduced intraocular pressure” and the “Effect of daily treatments on ocular pressure” value (mice [1]; daily treatments over 7 days, FIG. 2C) was “sustained lower ocular pressure”.

— patent publication US20190343822A1, “TREATMENT FOR GLAUCOMA” (INDIANA UNIVERSITY RESEARCH AND TECHNOLOGY CORPORATION, priority 2018, published 2019)
